The structures appear in SMILES notation.

This note sets out measurements from US11673901B2, “Polycyclic compounds as allosteric SHP2 inhibitors” (Revolution Medicines, Inc., priority 2017, dated 2023).

The assay has as its target SHP2 (Homo sapiens (Human), UniProt Q06124). Description: SHP2 allosteric inhibition assay (DiFMUP prompt fluorescence). Format: biochemical. Particulars: 0.2 nM SHP2 activated with 0.5 μM Activating Peptide 1 or 2; substrate DiFMUP; Table 2, class symbols. The source says: Without wishing to be bound by theory, SHP2 is allosterically activated through binding of bis-tyrosyl-phosphorylated peptides to its Src Homology 2 (SH2) domains. The latter activation step leads to the release of the auto-inhibitory interface of SHP2, which in turn renders the SHP2 protein tyrosine phosphatase (PTP) active and available for substrate recognition and reaction catalysis. The catalytic activity of SHP2 was monitored using the surrogate substrate DiFMUP in a prompt fluorescence assay format.
The phosphatase reactions were performed at room temperature in 96-well black polystyrene plate, flat bottom, non-binding surface (Corning, Cat #3650) using a final reaction volume of 100 μL and the following assay buffer conditions: 50 mM HEPES, pH 7.2, 100 mM NaCl, 0.5 mM EDTA, 0.05% P-20, 1 mM DTT.
The inhibition of SHP2 by compounds of the invention (concentrations varying from 0.00005-10 μM) was monitored using an assay in which 0.2 nM of SHP2 was incubated with 0.5 μM of Activating Peptide 1 (sequence: H2N-LN(pY)IDLDLV(dPEG8)LST(pY)ASINFQK-amide) or Activating Peptide 2 (sequence: H2N-LN(pY)AQLWHA(dPEG8)LTI(pY)ATIRRF-amide). After 30-60-minutes incubation at 25° C., the surrogate substrate DiFMUP (Invitrogen, Cat #D6567) was added to the reaction and activity was determined by a kinetic read using a microplate reader (Envision, Perkin-Elmer or Spectramax M5, Molecular Devices). The excitation and emission wavelengths were 340 nm and 450 nm, respectively. Initial rates were determined from a linear fit of the data, and the inhibitor dose response curves were analyzed using normalized IC50 regression curve fitting with control based normalization.

Sequence of SHP2 (Q06124 whole entry): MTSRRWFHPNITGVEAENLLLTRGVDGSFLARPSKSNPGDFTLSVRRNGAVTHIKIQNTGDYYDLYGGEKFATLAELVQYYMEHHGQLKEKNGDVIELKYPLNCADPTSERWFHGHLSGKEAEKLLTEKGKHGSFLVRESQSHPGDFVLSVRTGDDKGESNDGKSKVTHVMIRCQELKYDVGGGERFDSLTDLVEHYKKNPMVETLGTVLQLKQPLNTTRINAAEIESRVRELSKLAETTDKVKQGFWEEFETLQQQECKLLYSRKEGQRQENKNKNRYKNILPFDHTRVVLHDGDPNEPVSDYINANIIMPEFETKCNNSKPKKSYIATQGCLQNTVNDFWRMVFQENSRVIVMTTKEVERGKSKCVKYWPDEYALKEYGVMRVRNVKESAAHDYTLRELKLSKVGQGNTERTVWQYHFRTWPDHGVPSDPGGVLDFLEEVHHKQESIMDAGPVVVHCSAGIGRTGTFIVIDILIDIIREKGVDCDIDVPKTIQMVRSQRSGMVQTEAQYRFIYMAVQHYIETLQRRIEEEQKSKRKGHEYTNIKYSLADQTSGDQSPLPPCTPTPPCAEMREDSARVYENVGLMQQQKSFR

In turn, `Cc1nc(N2CCC3(CC2)CO[C@@H](C)[C@H]3N)n2ccnc2c1-c1cccc2c(F)c[nH]c12` [Compound 55, (3S,4S)-8-[8-(3-fluoro-1H-indol-7-yl)-7-methylimidazo[1,2-c]pyrimidin-5-yl]-3-methyl-2-oxa-8-azaspiro[4.5]decan-4-amine] registered a half-maximal inhibitory concentration (IC50) of at most 50 nM.
`C[C@@H]1OCC2(CCN(c3ncc(-c4cccc(Cl)c4Cl)c4nccn34)CC2)[C@@H]1N` [Compound 56, (3S,4S)-8-[8-(2,3-dichlorophenyl)imidazo[1,2-c]pyrimidin-5-yl]-3-methyl-2-oxa-8-azaspiro[4.5]decan-4-amine] returned a half-inhibitory concentration (IC50) of at most 50 nM.
The molecule `COc1cccc(-c2cnc(N3CCC4(CC3)CO[C@@H](C)[C@H]4N)n3ccnc23)c1Cl` [Compound 57, (3S,4S)-8-[8-(2-chloro-3-methoxyphenyl)imidazo[1,2-c]pyrimidin-5-yl]-3-methyl-2-oxa-8-azaspiro[4.5]decan-4-amine] showed a half-inhibitory concentration (IC50) of 50 to 500 nM.
`C[C@@H]1OCC2(CCN(c3ncc(-c4ccnc(N)c4)c4nccn34)CC2)[C@@H]1N` [Compound 58, (3S,4S)-8-[8-(2-aminopyridin-4-yl)imidazo[1,2-c]pyrimidin-5-yl]-3-methyl-2-oxa-8-azaspiro[4.5]decan-4-amine] displayed a 50% inhibitory concentration (IC50) of over 500 nM.
In the case of `C[C@@H]1OCC2(CCN(c3ncc(-c4ccnc5[nH]ccc45)c4nccn34)CC2)[C@@H]1N` [Compound 59, (3S,4S)-3-methyl-8-(8-{1H-pyrrolo[2,3-b]pyridin-4-yl}imidazo[1,2-c]pyrimidin-5-yl)-2-oxa-8-azaspiro[4.5]decan-4-amine] it was over 500 nM; in that of `C[C@@H]1OCC2(CCN(c3ncc(-c4ccnc(N)c4Cl)c4nccn34)CC2)[C@@H]1N` [Compound 60, (3S,4S)-8-[8-(2-amino-3-chloropyridin-4-yl)imidazo[1,2-c]pyrimidin-5-yl]-3-methyl-2-oxa-8-azaspiro[4.5]decan-4-amine], over 500 nM.
The result for `Cc1nc(N2CCC3(CC2)CO[C@@H](C)[C@H]3N)n2cnnc2c1Sc1ccnc(N)c1Cl` [Compound 61, (3S,4S)-8-{8-[(2-amino-3-chloropyridin-4-yl)sulfanyl]-7-methyl-[1,2,4]triazolo[4,3-c]pyrimidin-5-yl}-3-methyl-2-oxa-8-azaspiro[4.5]decan-4-amine] reads at most 50 nM; that for `Cc1nc(N2CCC3(CC2)CC(N2CC(C#N)C2)C[C@H]3N)n2ccnc2c1-c1cccc(Cl)c1Cl` (stereo partly drawn) [Compound 62, 1-[(4R)-4-amino-8-[8-(2,3-dichlorophenyl)-7-methylimidazo[1,2-c]pyrimidin-5-yl]-8-azaspiro[4.5]decan-2-yl]azetidine-3-carbonitrile], at most 50 nM.
As for `CNC(=O)O[C@H]1C[C@@H](N)C2(CCN(c3nc(C)c(-c4cccc(Cl)c4Cl)c4nccn34)CC2)C1` [Compound 63, (2R,4R)-4-amino-8-[8-(2,3-dichlorophenyl)-7-methylimidazo[1,2-c]pyrimidin-5-yl]-8-azaspiro[4.5]decan-2-yl N-methylcarbamate], the IC50 is at most 50 nM.
Consider `COc1cccc(-c2c(C)nc(N3CCC4(CC3)C[C@@H](OC3COC3)C[C@H]4N)n3ccnc23)c1Cl` [Compound 64, (2R,4R)-8-[8-(2-chloro-3-methoxy-phenyl)-7-methyl-imidazo[1,2-c]pyrimidin-5-yl]-2-(oxetan-3-yloxy)-8-azaspiro[4.5]decan-4-amine], for which the IC50 was at most 50 nM.
As to `C[C@@H]1OCC2(CCN(c3cnc(Sc4ccnc(N)c4Cl)c4nccn34)CC2)[C@@H]1N` [Compound 65, (3S,4S)-8-{8-[(2-amino-3-chloropyridin-4-yl)sulfanyl]imidazo[1,2-a]pyrazin-5-yl}-3-methyl-2-oxa-8-azaspiro[4.5]decan-4-amine], the IC50 is over 500 nM.
The result for `NC(=O)CNc1ncc(Sc2ccnc(N)c2Cl)c2nccn12` [Compound 66, 2-({8-[(2-amino-3-chloropyridin-4-yl)sulfanyl]imidazo[1,2-c]pyrimidin-5-yl}amino)acetamide] reads over 500 nM.
As for `Nc1nccc(Sc2cnc(N3CCC[C@H]3CO)n3ccnc23)c1Cl` [Compound 67], the half-inhibitory concentration (IC50) is over 500 nM.

The IC50 is the midpoint of a concentration-inhibition curve.
